The source of these data is patent US5496935A, “2',3'-dideoxynucleoside pyrimidine compounds and carbocyclic analogs” (Max-Delbru/ ck-Centrum, priority 1994, dated 1996).

The target of data set [1] is T1, HIV-associated reverse transcriptase (HIV-RT) (Human immunodeficiency virus type 1 group M subtype B, UniProt P04585).
T1 construct: HIV-associated reverse transcriptase (HIV-RT)
The experiment in a line: Inhibition of the HIV-associated reverse transcriptase (HIV-RT). The class given is biochemical. Here is the method: 1. Selective inhibition of the HIV-associated reverse transcriptase (HIV-RT) by 3'-fluoro-4-thiothymidine-triphosphate
(§1) For these investigations, the effect of the compound on the activity of HIV-RT as well as on the cellular DNA polymerase was determined using the methods described by Matthes et al., in Biochem. Biophys. Res. Commun. 148, 78 (1987). Different concentrations of 3'-fluoro-4-thiothymidine triphosphate were added to the enzyme preparations. The concentrations of 3'-fluoro-4-thiothymidine triphosphate, which inhibit the polymerases investigated to the extent of 50% (ID50), were determined from the inhibition curves obtained. […] Accordingly 3'-fluoro-4-thiothymidine triphosphate inhibits the HIV-RT 700 times more effectively than the cellular DNA polymerase and thus has a largely selective effect on the HIV replication.

For a further data set, the target named is T2, DNA polymerase (Homo sapiens, UniProt P09884).
T2 sequence (P09884 1-1462): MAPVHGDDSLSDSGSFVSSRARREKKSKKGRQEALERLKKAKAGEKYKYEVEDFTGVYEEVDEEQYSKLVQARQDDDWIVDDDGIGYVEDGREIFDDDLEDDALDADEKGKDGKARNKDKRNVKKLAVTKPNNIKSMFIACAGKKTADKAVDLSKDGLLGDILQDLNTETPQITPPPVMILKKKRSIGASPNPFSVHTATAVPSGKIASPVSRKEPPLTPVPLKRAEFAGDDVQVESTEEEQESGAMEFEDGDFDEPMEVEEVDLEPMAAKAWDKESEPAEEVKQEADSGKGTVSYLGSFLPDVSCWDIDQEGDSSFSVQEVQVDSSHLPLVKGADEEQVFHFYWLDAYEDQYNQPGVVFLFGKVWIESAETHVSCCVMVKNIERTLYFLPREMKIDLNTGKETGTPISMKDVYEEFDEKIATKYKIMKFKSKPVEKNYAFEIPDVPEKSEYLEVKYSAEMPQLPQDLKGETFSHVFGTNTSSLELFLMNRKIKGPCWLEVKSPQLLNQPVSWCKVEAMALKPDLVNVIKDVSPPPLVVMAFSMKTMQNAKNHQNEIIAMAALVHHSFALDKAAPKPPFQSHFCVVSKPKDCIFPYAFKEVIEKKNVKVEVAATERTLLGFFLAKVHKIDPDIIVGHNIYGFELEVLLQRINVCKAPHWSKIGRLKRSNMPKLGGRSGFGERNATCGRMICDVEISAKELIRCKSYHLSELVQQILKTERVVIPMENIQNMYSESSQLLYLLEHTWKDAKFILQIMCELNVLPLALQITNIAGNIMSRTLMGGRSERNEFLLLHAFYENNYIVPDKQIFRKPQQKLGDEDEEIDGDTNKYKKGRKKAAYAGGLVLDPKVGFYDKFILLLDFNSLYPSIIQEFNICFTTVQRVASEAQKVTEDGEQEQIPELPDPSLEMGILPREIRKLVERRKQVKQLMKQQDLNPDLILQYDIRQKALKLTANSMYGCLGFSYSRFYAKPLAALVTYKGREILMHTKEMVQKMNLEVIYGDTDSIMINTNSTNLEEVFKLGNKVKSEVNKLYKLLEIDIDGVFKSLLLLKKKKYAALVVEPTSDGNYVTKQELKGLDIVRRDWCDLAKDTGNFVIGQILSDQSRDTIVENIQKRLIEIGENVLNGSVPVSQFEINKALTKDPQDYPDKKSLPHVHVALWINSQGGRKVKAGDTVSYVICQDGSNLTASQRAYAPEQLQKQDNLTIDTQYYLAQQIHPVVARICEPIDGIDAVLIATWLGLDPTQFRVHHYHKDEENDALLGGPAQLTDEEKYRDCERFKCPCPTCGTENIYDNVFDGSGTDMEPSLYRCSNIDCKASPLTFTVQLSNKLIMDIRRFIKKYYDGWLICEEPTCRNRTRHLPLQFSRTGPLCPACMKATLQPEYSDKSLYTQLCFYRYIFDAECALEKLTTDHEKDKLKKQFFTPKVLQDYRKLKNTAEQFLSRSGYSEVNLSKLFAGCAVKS
The experiment in a line: Inhibition of cellular DNA polymerase (enzyme mainly responsible for cellular replication). The class given is biochemical. The following applies: read-out: ID50 (concentration inhibiting the polymerase to the extent of 50%), DNA polymerase. Here is the method: as §1

Another data set has as its target DNA polymerase β (Homo sapiens, UniProt P06746). The experiment in a line: Inhibition of DNA polymerase β (cellular DNA repair enzyme). The class given is biochemical. The following applies: read-out: ID50 (concentration inhibiting the polymerase to the extent of 50%), DNA polymerase β. Here is the method: as §1
A short description of data set [2]: Antiproliferative effect on MT-4 cells. The class given is cell-based, human. To be noted: human, mt-4 cells. The text has this:
(§2) Under in vitro conditions, an infection of T lymphocytes with HIV leads to the death of the cells within a few days. The MT-4 cells, described by Harada et al. in Science 229, 563 (1985), were used in a test system (Matthes et al., Biochem. Biophys., Res. Commun. 153, 825 (1988)), to test to what extent the inventive nucleosides can nullify the cytocidal effect of HIV-1 (HTLV IIIa) on this T cell line. In addition, the antiproliferative effectiveness of the nucleosides investigated is listed and, moreover, as the concentration which decreases the proliferation of the MT-4 cells by 50% (CD50). […]
(§3) Comparison of the antiviral and antiproliferative effectiveness
(§4) of nucleoside analogies using MT-4 cells

A further data set concerns HIV-1 (HTLV IIIa). The experiment in a line: Inhibition of the cytopathic effect of HIV on T lymphocyte cells (protection of MT-4 cells). The class given is cell-based. To be noted: for EC50: Human immunodeficiency virus 1, MT4, 50% protection of MT-4 cells against HIV-1 (HTLV IIIa), read-out: 50% antiviral dose (ED50).
Source text: 2. Inhibition of the cytopathic effect of HIV on T lymphocyte cells
Under in vitro conditions, an infection of T lymphocytes with HIV leads to the death of the cells within a few days. The MT-4 cells, described by Harada et al. in Science 229, 563 (1985), were used in a test system (Matthes et al., Biochem. Biophys., Res. Commun. 153, 825 (1988)), to test to what extent the inventive nucleosides can nullify the cytocidal effect of HIV-1 (HTLV IIIa) on this T cell line. In addition, the antiproliferative effectiveness of the nucleosides investigated is listed and, moreover, as the concentration which decreases the proliferation of the MT-4 cells by 50% (CD50).
as §3, §4
A general note: Cytopathic effects are the visible damage that an infection or toxin causes in cultured cells.

Data set [3] can be described thus: In vitro cytotoxicity to cell cultures, Molt-4. The class given is cell-based. The following applies: human, molt-4 cells; read-out: CD50, antiproliferative effect. The text has this: (§5) 3. In vitro cytotoxicity of 3'-fluoro-4-thiothymidine to cell cultures
(§6) A series of further human cell lines was included in the investigation of the antiproliferative effect of 3'-fluoro-4-thiothymidine and the following CD50 were found: […]

The next data set relates to MT-4 cells. The experiment in a line: Antiproliferative effect on MT-4 cells. It is filed as cell-based, human.
Source text: as §2, §3, §4

Data set [4] is described as follows: In vitro cytotoxicity to cell cultures, REH. The class given is cell-based. The following applies: human, reh cells; read-out: CD50, antiproliferative effect.
Source text: as §5, §6

Data set [5] in a line: In vitro cytotoxicity to cell cultures, H-8. The class given is cell-based. The following applies: human, h-8 cells; read-out: CD50, antiproliferative effect.
Source text: as §5, §6

Data set [6] concerns colony-forming cells of the bone marrow of the mouse (GM-CFU). The experiment in a line: Growth inhibition of colony-forming cells of the bone marrow (GM-CFU). The class given is cell-based. The following applies: concentrations up to 100 micromoles/L.
Data set [7] can be described thus: In vitro cytotoxicity to cell cultures, HELFI. It is filed as cell-based. The following applies: human, helfi lung fibroblasts; read-out: CD50, antiproliferative effect.
Source text: as §5, §6

Another data set relates to AIDS patients. The following applies: cited from earlier work.
[8] abbreviates: AIDS patients with Pneumocystis carinii pneumonia.

As for `Cc1cn([C@H]2C[C@H](F)[C@@H](COP(=O)(O)OP(=O)(O)OP(=O)(O)O)O2)c(=O)[nH]c1=S` [3'-fluoro-4-thiothymidine triphosphate, 1-(2,3-Dideoxy-3-fluoro-β-D-ribofuranosyl)-4-thiothymine-5'-triphosphate], in [1] (HIV-RT versus cellular DNA polymerase), the “inhibits the HIV-RT times more effectively than the cellular DNA polymerase” value is reported as 700 times. In addition, the IC50 in [1] (HIV-RT, read-out: ID50 (concentration inhibiting the polymerase to the extent of 50%), HIV-RT) was 0.3 µM; on DNA polymerase, 140 µM; on DNA polymerase β, 7 µM.

Molecule `O=c1[nH]c(=S)ccn1[C@H]1C[C@H](F)[C@@H](CO)O1` [1-(2,3-Dideoxy-3-fluoro-β-D-ribofuranosyl)-4-thiouracil] had a CC50 in data set [2] of 150 µM. Also, in the data set with HIV-1 (HTLV IIIa), the EC50 was 15 µM.

In the case of `O=c1ncccn1[C@H]1C[C@H](F)[C@@H](CO)O1` [1-(2,3-dideoxy-3-fluoro-β-D-ribofuranosyl)-pyrimidine-2-one], in [2], the CC50 is over 800 µM. Moreover, the EC50 in the data set on HIV-1 (HTLV IIIa) is 30 µM.

With `Cc1cn([C@H]2C[C@H](F)[C@@H](CO)O2)c(=O)[nH]c1=S` [1-(2,3-Dideoxy-3-fluoro-β-D-ribofuranosyl)-4-thiothymine], the CC50 is at least 1000 µM in data set [3]; 480 µM in [2]; 500 µM in data set [4]; at least 800 µM in [5]; 700 µM in data set [7]. Also, the “effect on cell proliferation (in words)” value with MT-4 cells (MT-4 cells) is given as “hardly any effect on the cell proliferation”. Further, the “cytotoxicity (summary in words)” value with MT-4 cells (summary of the cell tests) is given as “very slight cytotoxicity”. The “growth-inhibiting effect on colony-forming cells of the bone marrow” value in data set [6] is “no growth-inhibiting effect whatsoever”. Besides, in the data set with HIV-1 (HTLV IIIa), the “inhibition of HIV replication (summary in words)” value is recorded as “effective inhibitor of HIV replication”. Besides, the EC50 in the data set on HIV-1 (HTLV IIIa) amounted to 1.8 µM.

For the molecule `Cc1ccc(C(=O)Nc2ccc(S(=O)(=O)O)c3cc(S(=O)(=O)O)cc(S(=O)(=O)O)c23)cc1NC(=O)c1cccc(NC(=O)Nc2cccc(C(=O)Nc3cc(C(=O)Nc4ccc(S(=O)(=O)O)c5cc(S(=O)(=O)O)cc(S(=O)(=O)O)c45)ccc3C)c2)c1` [Suranim], the “tolerance and effectiveness (in words)” value in the data set with AIDS patients (clinically tested) is “have not yet attained the necessary tolerance and the hoped-for effectiveness”.

In data set [2], `O=c1nc(NO)ccn1[C@H]1C[C@H](F)[C@@H](CO)O1` [1-(2,3-Dideoxy-3-fluoro-β-D-glycero-ribofuranosyl)-4-hydroxylamino-(1H)-pyrimidine-2-one] showed a CC50 of 100 µM. The EC50 in the data set on HIV-1 (HTLV IIIa) amounted to 100 µM.

With `Cc1cn([C@H]2C[C@H](N=[N+]=[N-])[C@@H](CO)O2)c(=O)[nH]c1=O` [3'-azidothymidine], in the data set on AIDS patients (setting [8]), the “clinical and neurological findings (in words)” value is “improvements in clinical and neurological findings”; the “immunological functions (in words)” value is recorded as “occasional restoration of certain immunological functions”; the “life prolonging effects (in words)” value is recorded as “unambiguous life prolonging effects”. Also, the “patients in whom toxic side effects on the bone marrow make blood transfusions necessary” value with AIDS patients (AIDS patients) is “about 50%”.

As for `CSc1nc(=O)n([C@H]2C[C@H](F)[C@@H](CO)O2)cc1C` [1-(2,3-Dideoxy-3-fluoro-β-D-ribofuranosyl)-4-methylmercapto-5-methyl-(1H)-pyrimidine-2-one], the CC50 in data set [2] is over 1000 µM. In the data set on HIV-1 (HTLV IIIa), the EC50 is over 1000 µM.

The molecule `Cc1cn([C@H]2C=C[C@@H](CO)O2)c(=O)[nH]c1=S` [1-(2,3-Dideoxy-β-D-glycero-pent-2-enofuranosyl)-4-thiothymine] returned a CC50 in data set [2] of 350 µM. Besides, the EC50 in the data set with HIV-1 (HTLV IIIa) was 0.85 µM.

On to `Cc1cn([C@H]2C[C@H](F)[C@@H](CO)O2)c(=O)nc1NO` [1-(2,3-Dideoxy-3-fluoro-β-D-ribofuranosyl)-4-hydroxylamino-5-methyl-(1H)-pyrimidine-2-one], for which the CC50 in data set [2] was 300 µM. The EC50 in the data set on HIV-1 (HTLV IIIa) came out at 100 µM.

Regarding `CSc1ccn([C@H]2C[C@H](F)[C@@H](CO)O2)c(=O)n1` [1-(2,3-dideoxy-3-fluoro-β-D-ribofuranosyl)-4-methylmercapto-pyrimidine-2-one], the CC50 in data set [2] worked out at 50 µM. In addition, the EC50 with HIV-1 (HTLV IIIa) is 12 µM.

`Cc1cnc(=O)n([C@H]2C[C@H](F)[C@@H](CO)O2)c1` [1-(2,3-dideoxy-3-fluoro-β-D-ribofuranosyl)-5-methyl-pyrimidine-2-one] gave a CC50 in data set [2] of over 400 µM. Further, in the data set on HIV-1 (HTLV IIIa), the EC50 was 12 µM.
